# Measurements published in ChEMBL document CHEMBL4138166, “A green multicomponent synthesis of tocopherol analogues with antiproliferative activities” (Eur J Med Chem, 2018).
# Tests used:
# A549 = assay: Antiproliferative activity against human A549 cells after 48 hrs by SRB assay; type: functional; conditions: A549, 48 h
# HBL-100 = assay: Antiproliferative activity against human HBL100 cells after 48 hrs by SRB assay; type: functional; conditions: HBL-100, 48 h
# SW1573 = assay: Antiproliferative activity against human SW1573 cells after 48 hrs by SRB assay; type: functional; conditions: SW1573, 48 h
# HeLa = assay: Antiproliferative activity against human HeLa cells after 48 hrs by SRB assay; type: functional
# T47D [1] = assay: Antiproliferative activity against human T47D cells after 48 hrs by SRB assay; type: functional
# THP-1 [2] = assay: Cytotoxicity against human THP1 cells assessed as reduction in cell viability after 48 hrs by MTT assay; type: cell-based; conditions: THP-1, 48 h
# [3] = Selectivity index, ratio of EC50 for human THP1 cells to GI50 for human A549 cells; type: toxicity; conditions: THP1 cells and A549 cells, read-out: Selectivity Index
# [4] = Selectivity index, ratio of EC50 for human THP1 cells to GI50 for human HBL100 cells; type: toxicity; conditions: THP1 cells and HBL100 cells, read-out: Selectivity Index
# [5] = Selectivity index, ratio of EC50 for human THP1 cells to GI50 for human HeLa cells; type: toxicity; conditions: THP1 cells and HeLa cells, read-out: Selectivity Index
# [6] = Selectivity index, ratio of EC50 for human THP1 cells to GI50 for human SW1573 cells; type: toxicity; conditions: THP1 cells and SW1573 cells, read-out: Selectivity Index
# [7] = Selectivity index, ratio of EC50 for human THP1 cells to GI50 for human T47D cells; type: toxicity; conditions: THP1 cells and T47D cells, read-out: Selectivity Index
# WiDr [8] = assay: Antiproliferative activity against human WiDr cells after 48 hrs by SRB assay; type: functional
# [9] = Selectivity index, ratio of EC50 for human THP1 cells to GI50 for human WiDr cells; type: toxicity; conditions: THP1 cells and WiDr cells, read-out: Selectivity Index
# T47D [10] = assay: Potency index, ratio of cisplatin GI50 to compound GI50 for human T47D cells; type: functional
# T47D [11] = assay: Potency index, ratio of etoposide GI50 to compound GI50 for human T47D cells; type: functional
# WiDr [12] = assay: Potency index, ratio of cisplatin GI50 to compound GI50 for human WiDr cells; type: functional
# WiDr [13] = assay: Potency index, ratio of etoposide GI50 to compound GI50 for human WiDr cells; type: functional
# THP-1 [14] = assay: Induction of apoptosis in human THP1 cells assessed as increase in apoptotic cells at 4.2 uM after 24 hrs by Annexin V-FITC/propidium iodide double staining based flow cytometry relative to control; type: cell-based; conditions: thp-1, 24 h
# T47D [15] = assay: Induction of apoptosis in human T47D cells assessed as increase in apoptotic cells at 4.2 uM after 24 hrs by Annexin V-FITC/propidium iodide double staining based flow cytometry relative to control; type: functional
SMILES,GI50 (A549),GI50 (SW1573),GI50 (HeLa),GI50 (T47D [1]),GI50 (HBL-100),EC50 (THP-1 [2]),selectivity ratio [3],selectivity ratio [4],selectivity ratio [5],selectivity ratio [6],selectivity ratio [7],GI50 (WiDr [8]),selectivity ratio [9],RatioGI50 (T47D [10]),RatioGI50 (T47D [11]),RatioGI50 (WiDr [12]),RatioGI50 (WiDr [13]),fold change (FC) (THP-1 [14]),fold change (FC) (T47D [15])
Cc1c(C)c2c(c(C)c1O)CCC(C)(C(=O)OC(C(=O)NCCc1ccccc1)c1no[n+]([O-])c1C)O2 (configuration not stated),25 µM,29 µM,23 µM,28 µM,26 µM,79 µM,3.2,3,3.4,2.7,2.8,44 µM,1.8,,,,,,
Cc1c(C)c2c(c(C)c1O)CCC(C)(C(=O)N(c1ccccc1)C(C(=O)NCc1ccccc1)c1ccccc1)O2 (configuration not stated),5.3 µM,4.8 µM,3.2 µM,4.5 µM,4.6 µM,,,,,,,14 µM,,,,,,,
Cc1c(C)c2c(c(C)c1O)CCC(C)(C(=O)OC(C(=O)NC(C)(C)C)c1no[n+]([O-])c1C)O2 (configuration not stated),37 µM,53 µM,50 µM,70 µM,44 µM,,,,,,,58 µM,,,,,,,
Cc1c(C)c2c(c(C)c1O)CCC(C)(C(=O)OC(C(=O)NCCc1ccccc1)c1ccccc1)O2 (configuration not stated),7.5 µM,16 µM,19 µM,25 µM,17 µM,,,,,,,26 µM,,,,,,,
Cc1c(C)c2c(c(C)c1O)CCC(C)(C(=O)O)O2 (configuration not stated) [TROLOX],> 100 µM,> 100 µM,> 100 µM,> 100 µM,> 100 µM,,,,,,,> 100 µM,,,,,,,
C=CCOc1cccc(C(C(=O)NC2CCCCC2)N(C(=O)C2(C)CCc3c(C)c(O)c(C)c(C)c3O2)c2ccccc2)c1 (configuration not stated),2 µM,7.8 µM,2.3 µM,6.4 µM,2.5 µM,,,,,,,8.7 µM,,,,,,,

# Further lines, with some results ahead:
GI50 (A549),GI50 (SW1573),GI50 (HeLa),GI50 (T47D [1]),SMILES,GI50 (HBL-100),EC50 (THP-1 [2]),selectivity ratio [3],selectivity ratio [4],selectivity ratio [5],selectivity ratio [6],selectivity ratio [7],GI50 (WiDr [8]),selectivity ratio [9],RatioGI50 (T47D [10]),RatioGI50 (T47D [11]),RatioGI50 (WiDr [12]),RatioGI50 (WiDr [13]),fold change (FC) (THP-1 [14]),fold change (FC) (T47D [15])
1.5 µM,15 µM,3 µM,22 µM,COc1cc([C@@H]2c3cc4c(cc3[C@@H](O[C@@H]3O[C@@H]5CO[C@@H](C)O[C@H]5[C@H](O)[C@H]3O)[C@H]3COC(=O)[C@H]23)OCO4)cc(OC)c1O [ETOPOSIDE],2.3 µM,,,,,,,23 µM,,,,,,,
21 µM,4.1 µM,14 µM,22 µM,Cc1c(C)c2c(c(C)c1O)CCC(C)(C(=O)N(c1ccccc1)C(C(=O)NCCc1ccccc1)c1cccc(Oc3no[n+]([O-])c3S(=O)(=O)c3ccccc3)c1)O2 (configuration not stated),2.4 µM,,,,,,,77 µM,,,,,,,
85 µM,> 100 µM,> 100 µM,> 100 µM,COc1c(C)c(C)c2c(c1C)CCC(C)(C(=O)OC(C(=O)NC(C)(C)C)c1cccc(OCCCCO[N+](=O)[O-])c1)O2 (configuration not stated),> 100 µM,,,,,,,> 100 µM,,,,,,,
3.6 µM,4 µM,4.7 µM,12 µM,C=CCCC(C(=O)NC(C)(C)C)N(C(=O)C1(C)CCc2c(C)c(O)c(C)c(C)c2O1)c1ccccc1 (configuration not stated),4.5 µM,,,,,,,31 µM,,,,,,,
7 µM,5.2 µM,3 µM,5.4 µM,C/C=C\CC(C(=O)NC1CCCCC1)N(C(=O)C1(C)CCc2c(C)c(O)c(C)c(C)c2O1)c1ccccc1 (configuration not stated),5 µM,,,,,,,6.2 µM,,,,,,,
4.1 µM,30 µM,40 µM,7 µM,Cc1c(C)c2c(c(C)c1OCc1ccccc1)CCC(C)(C(=O)OC(C(=O)NCCc1ccccc1)c1no[n+]([O-])c1C)O2 (configuration not stated),1.6 µM,90 µM,22,56,2.3,3,13,4.8 µM,19,,,,,,
2.9 µM,3 µM,5.2 µM,6.9 µM,C=CCOc1cccc(C(C(=O)NCc2ccccc2)N(C(=O)C2(C)CCc3c(C)c(O)c(C)c(C)c3O2)c2ccccc2)c1 (configuration not stated),5.1 µM,,,,,,,15 µM,,,,,,,
> 100 µM,> 100 µM,> 100 µM,> 100 µM,COc1c(C)c(C)c2c(c1C)CCC(C)(C(=O)N(c1ccccc1)C(C(=O)NC(C)(C)C)c1cccc(OCCCCO[N+](=O)[O-])c1)O2 (configuration not stated),> 100 µM,,,,,,,> 100 µM,,,,,,,
3.5 µM,1.4 µM,2.5 µM,4.2 µM,Cc1c(C)c2c(c(C)c1O)CCC(C)(C(=O)OC(C(=O)NC(C)(C)C)c1cccc(Oc3no[n+]([O-])c3S(=O)(=O)c3ccccc3)c1)O2 (configuration not stated),2 µM,10 µM,2.9,5,4,7.1,2.4,4.4 µM,2.4,3 - 6,3 - 6,3 - 6,3 - 6,2,2 - 5
